Measurements published in patent EP0908457B1, “3-(1,2-benzisothiazol- and isoxazol-5-Y1)-2,4(1H,3H)-pyrimidinedione or thione and 3-(1,2-benzisothiazol- and isoxazol-5-y1)-4(3H)-pyrimidinone or thione herbicidal agents” (BASF AKTIENGESELLSCHAFT, priority 1997, dated 1999).

How the values were obtained:
[1] = system: Oryza sativa, (L.) Tebonnet; assay: Rice tolerance to post-transplant applications under flooded paddy conditions (Example 187), ORYSAT (Rice, Tebonnet); conditions: rated three to four weeks after treatment
[2] = system: Echinochloa oryzoides (Ard.) Fritsch.; assay: Preemergence weed control under flooded paddy conditions, ECHORC (Watergrass (Calif.)); format: in vivo; conditions: flooded paddy; for ECHORC: herbicidal effect rating 0-9, three to four weeks after treatment; for herbicidal effect rating, ECHORC: meaning of each grade not given here
[3] = system: Monochoria vaginalis, Presl.; assay: Preemergence weed control under flooded paddy conditions, MOOVA (Monochoria); format: in vivo; conditions: flooded paddy; for MOOVA: herbicidal effect rating 0-9, three to four weeks after treatment; for herbicidal effect rating, MOOVA: meaning of each grade not given here
[4] = system: Cyperus serotinus, Rottb.; assay: Preemergence weed control under flooded paddy conditions, CYPSE (Flatsedge); format: in vivo; conditions: for CYPSE: herbicidal effect rating 0-9, three to four weeks after treatment; for herbicidal effect rating, CYPSE: meaning of each grade not given here
Sagittaria pygmaea, L. = assay: Preemergence weed control under flooded paddy conditions, SAGPY (Arrowhead (Pygmaea)); format: in vivo; conditions: flooded paddy; for SAGPY: herbicidal effect rating 0-9, three to four weeks after treatment; for herbicidal effect rating, SAGPY: meaning of each grade not given here
Cyperus iria = assay: Preemergence weed control under flooded paddy conditions, CYPIR (Rice Flatsedge); format: in vivo; conditions: flooded paddy; for CYPIR: herbicidal effect rating 0-9, three to four weeks after treatment; for herbicidal effect rating, CYPIR: meaning of each grade not given here
[5] = 0.1250 kg/ha, preemergence, rated three to four weeks after treatment
[6] = 0.2500 kg/ha, preemergence, rated three to four weeks after treatment
[7] = Rate 0.0320 kg/ha, preemergence, rated 3-4 weeks after treatment
[8] = Rate 0.0620 kg/ha, preemergence, rated 3-4 weeks after treatment
[9] = Rate 0.1250 kg/ha, preemergence, rated 3-4 weeks after treatment
[10] = Rate 0.2500 kg/ha, preemergence, rated 3-4 weeks after treatment
[11] = 0.0320 kg/ha, preemergence, rated three to four weeks after treatment
[12] = 0.0620 kg/ha, preemergence, rated three to four weeks after treatment
[13] = Rate 0.0320 kg/ha, preemergence weeds, rated three to four weeks after treatment
[14] = Rate 0.0620 kg/ha, preemergence weeds, rated three to four weeks after treatment
[15] = Rate 0.1250 kg/ha, preemergence weeds, rated three to four weeks after treatment
[16] = Rate 0.2500 kg/ha, preemergence weeds, rated three to four weeks after treatment
[17] = 0.0320 kg/ha, preemergence weeds
[18] = 0.0620 kg/ha, preemergence weeds
[19] = 0.1250 kg/ha, preemergence weeds
[20] = 0.2500 kg/ha, preemergence weeds
[21] = Rate 0.0320 kg/ha, preemergence, rated three to four weeks after treatment
[22] = Rate 0.0620 kg/ha, preemergence, rated three to four weeks after treatment
[23] = Rate 0.1250 kg/ha, preemergence, rated three to four weeks after treatment
[24] = Rate 0.2500 kg/ha, preemergence, rated three to four weeks after treatment
[25] = Rate 0.5000 kg/ha, preemergence, rated three to four weeks after treatment

For `Cn1c(C(F)(F)F)cc(=O)n(-c2ccc3snc(Cl)c3c2)c1=O` [Example 37, 3-(3-Chloro-1,2-benzisothiazol-5-yl)-1-methyl-6-(trifluoromethyl)-2,4(1H,3H)-pyrimidinedione], the “herbicidal effect rating, ORYSAT (rice tolerance)” value (from here on “herbicidal effect rating, ORYSAT”) ([1]; 0.0313 kg/ha) was 0.0, the “herbicidal effect rating, ORYSAT” value ([1]; 0.0625 kg/ha) was 1.0 and the “herbicidal effect rating, ORYSAT” value ([1]; 0.1250 kg/ha) was 1.0. For the same compound, the “herbicidal effect rating, ORYSAT” value ([1]; 0.2500 kg/ha) was 1.0, the “herbicidal effect rating, ECHORC” value ([2]; 0.0313 kg/ha, preemergence, rated three to four weeks after treatment) was 4.0 and the “herbicidal effect rating, ECHORC” value ([2]; 0.0625 kg/ha, preemergence, rated three to four weeks after treatment) was 7.0. The “herbicidal effect rating, ECHORC” value [2, 5] was 8.0 and the “herbicidal effect rating, ECHORC” value [2, 6] was 9.0.
For `Cc1ccc(OCC(=O)OCCCCCO[Si](C)(C)C(C)(C)C)c(-c2nsc3ccc(-n4c(=O)cc(C(F)(F)F)n(C)c4=O)cc23)c1` [Example 534, Acetic acid, {{2-{5-[3,6-dihydro-3-methyl-2,6-dioxo-4-(trifluoromethyl)-1(2H)-pyrimidinyl]-1,2-benzisothiazol-3-yl}-p-tolyl}oxy}-, 5-(tert-butyldimethylsiloxy)pentyl ester], the “herbicidal effect rating, MOOVA” value [3, 7] was 4.0, the “herbicidal effect rating, MOOVA” value [3, 8] was 9.0 and the “herbicidal effect rating, MOOVA” value [3, 9] was 9.0. For the same compound, the “herbicidal effect rating, MOOVA” value [3, 10] was 9.0, the “herbicidal effect rating, CYPSE” value [4, 7] was 0.0 and the “herbicidal effect rating, CYPSE” value [4, 8] was 0.0. For the same compound, the “herbicidal effect rating, CYPSE” value [4, 9] was 0.0, the “herbicidal effect rating, CYPSE” value [4, 10] was 0.0 and the “herbicidal effect rating, SAGPY” value (Sagittaria pygmaea, L.; [7]) was 0.0. The “herbicidal effect rating, SAGPY” value (Sagittaria pygmaea, L.; [8]) was 0.0, the “herbicidal effect rating, SAGPY” value (Sagittaria pygmaea, L.; [9]) was 0.0 and the “herbicidal effect rating, SAGPY” value (Sagittaria pygmaea, L.; [10]) was 0.0. For the same compound, the “herbicidal effect rating, ECHORC” value [2, 7] was 3.5, the “herbicidal effect rating, ECHORC” value [2, 8] was 4.5 and the “herbicidal effect rating, ECHORC” value [2, 9] was 9.0. For the same compound, the “herbicidal effect rating, ECHORC” value [2, 10] was 9.0, the “herbicidal effect rating, CYPIR” value (Cyperus iria; [7]) was 0.0 and the “herbicidal effect rating, CYPIR” value (Cyperus iria; [8]) was 3.0. For the same compound, the “herbicidal effect rating, CYPIR” value (Cyperus iria; [9]) was 3.0 and the “herbicidal effect rating, CYPIR” value (Cyperus iria; [10]) was 9.0.
Work on `CCC(C(=O)OCc1nsc2ccc(-n3c(=O)cc(C(F)(F)F)n(C)c3=O)cc12)c1ccccc1` (centres unmarked) [Example 473, 2,4(1H,3H)-Pyrimidinedione, 3-[3-(hydroxymethyl)-1,2-benzisothiazol-5-yl]-1-methyl-6-(trifluoromethyl)-, 2-phenylbutyrate (ester)] yielded an MOOVA herbicidal rating [3, 11] of 4.0, an MOOVA herbicidal rating [3, 12] of 6.0 and an MOOVA herbicidal rating [3, 5] of 7.0. For the same compound, the MOOVA herbicidal rating [3, 6] was 7.0, the CYPSE herbicidal rating [4, 11] was 0.0 and the CYPSE herbicidal rating [4, 12] was 0.0. It also gave a CYPSE herbicidal rating [4, 6] of 5.0, an SAGPY herbicidal rating (Sagittaria pygmaea, L.; [11]) of 0.0 and an SAGPY herbicidal rating (Sagittaria pygmaea, L.; [12]) of 0.0. The SAGPY herbicidal rating (Sagittaria pygmaea, L.; [5]) was 2.0, the SAGPY herbicidal rating (Sagittaria pygmaea, L.; [6]) was 3.0 and the ECHORC herbicidal rating [2, 11] was 1.0. It also gave an ECHORC herbicidal rating [2, 12] of 2.0, an ECHORC herbicidal rating [2, 5] of 2.0 and an ECHORC herbicidal rating [2, 6] of 4.0. The CYPIR herbicidal rating (Cyperus iria; [11]) was 2.0, the CYPIR herbicidal rating (Cyperus iria; [12]) was 4.0 and the CYPIR herbicidal rating (Cyperus iria; [5]) was 6.0. For the same compound, the CYPIR herbicidal rating (Cyperus iria; [6]) was 8.0.
In the case of `Cn1c(C(F)(F)F)cc(=O)n(-c2ccc3snc(CO[N+](=O)[O-])c3c2)c1=O` [Example 310, 2,4(1H,3H)-Pyrimidinedione, 3-[3-(hydroxymethyl)-1,2-benzisothiazol-5-yl]-1-methyl-6-(trifluoromethyl)-, nitrate (ester)], the “herbicidal effect rating, MOOVA” value [3, 13] was 9.0, the “herbicidal effect rating, MOOVA” value [3, 14] was 9.0 and the “herbicidal effect rating, MOOVA” value [3, 15] was 9.0. For the same compound, the “herbicidal effect rating, MOOVA” value [3, 16] was 9.0, the “herbicidal effect rating, CYPSE” value [4, 13] was 0.0 and the “herbicidal effect rating, CYPSE” value [4, 14] was 0.0. The “herbicidal effect rating, CYPSE” value [4, 15] was 0.0, the “herbicidal effect rating, CYPSE” value [4, 16] was 0.0 and the “herbicidal effect rating, SAGPY” value (Sagittaria pygmaea, L.; [13]) was 0.0. For the same compound, the “herbicidal effect rating, SAGPY” value (Sagittaria pygmaea, L.; [14]) was 0.0, the “herbicidal effect rating, SAGPY” value (Sagittaria pygmaea, L.; [15]) was 0.0 and the “herbicidal effect rating, SAGPY” value (Sagittaria pygmaea, L.; [16]) was 0.0. The “herbicidal effect rating, ECHORC” value [2, 13] was 0.0, the “herbicidal effect rating, ECHORC” value [2, 14] was 0.0 and the “herbicidal effect rating, ECHORC” value [2, 15] was 2.0. The “herbicidal effect rating, ECHORC” value [2, 16] was 3.0, the “herbicidal effect rating, CYPIR” value (Cyperus iria; [13]) was 9.0 and the “herbicidal effect rating, CYPIR” value (Cyperus iria; [14]) was 9.0. For the same compound, the “herbicidal effect rating, CYPIR” value (Cyperus iria; [15]) was 9.0 and the “herbicidal effect rating, CYPIR” value (Cyperus iria; [16]) was 9.0.
`Cn1c(C(F)(F)F)cc(=O)n(-c2ccc3snc(COC(=O)Cc4ccc(Cl)cc4)c3c2)c1=O` [Example 452, 2,4(1H,3H)-Pyrimidinedione, 3-[3-(hydroxymethyl)-1,2-benzisothiazol-5-yl]-1-methyl-6-(trifluoromethyl)-, (p-chlorophenyl)acetate (ester)] showed an MOOVA [3, 17] of 9.0, an MOOVA [3, 18] of 9.0 and an MOOVA [3, 19] of 9.0. The MOOVA [3, 20] was 9.0, the CYPSE [4, 17] was 0.0 and the CYPSE [4, 20] was 7.0. It also gave an SAGPY (Sagittaria pygmaea, L.; [17]) of 0.0, an SAGPY (Sagittaria pygmaea, L.; [18]) of 0.0 and an SAGPY (Sagittaria pygmaea, L.; [19]) of 0.0. For the same compound, the SAGPY (Sagittaria pygmaea, L.; [20]) was 2.0, the ECHORC [2, 17] was 0.0 and the ECHORC [2, 18] was 3.0. For the same compound, the ECHORC [2, 19] was 3.0, the ECHORC [2, 20] was 7.0 and the CYPIR (Cyperus iria; [17]) was 4.0. The CYPIR (Cyperus iria; [18]) was 6.0, the CYPIR (Cyperus iria; [19]) was 9.0 and the CYPIR (Cyperus iria; [20]) was 9.0.
With `Cn1c(C(F)(F)F)cc(=O)n(-c2ccc3snc(COS(C)(=O)=O)c3c2)c1=O` [Example 363, 2,4(1H,3H)-Pyrimidinedione, 3-[3-(hydroxymethyl)-1,2-benzisothiazol-5-yl]-1-methyl-6-(trifluoromethyl)-, methanesulfonate (ester)] the “herbicidal effect rating, MOOVA” value [3, 21] was 9.0, the “herbicidal effect rating, MOOVA” value [3, 22] was 9.0 and the “herbicidal effect rating, MOOVA” value [3, 23] was 9.0. The “herbicidal effect rating, MOOVA” value [3, 24] was 9.0, the “herbicidal effect rating, MOOVA” value [3, 25] was 9.0 and the “herbicidal effect rating, CYPSE” value [4, 21] was 0.0. The “herbicidal effect rating, CYPSE” value [4, 22] was 0.0, the “herbicidal effect rating, CYPSE” value [4, 23] was 5.0 and the “herbicidal effect rating, CYPSE” value [4, 24] was 7.0. For the same compound, the “herbicidal effect rating, CYPSE” value [4, 25] was 7.0, the “herbicidal effect rating, SAGPY” value (Sagittaria pygmaea, L.; [21]) was 3.0 and the “herbicidal effect rating, SAGPY” value (Sagittaria pygmaea, L.; [22]) was 5.0. The “herbicidal effect rating, SAGPY” value (Sagittaria pygmaea, L.; [23]) was 7.0, the “herbicidal effect rating, SAGPY” value (Sagittaria pygmaea, L.; [24]) was 9.0 and the “herbicidal effect rating, SAGPY” value (Sagittaria pygmaea, L.; [25]) was 9.0. For the same compound, the “herbicidal effect rating, ECHORC” value [2, 21] was 3.0, the “herbicidal effect rating, ECHORC” value [2, 22] was 4.0 and the “herbicidal effect rating, ECHORC” value [2, 23] was 5.0. The “herbicidal effect rating, ECHORC” value [2, 24] was 6.0, the “herbicidal effect rating, ECHORC” value [2, 25] was 7.0 and the “herbicidal effect rating, CYPIR” value (Cyperus iria; [21]) was 6.0. For the same compound, the “herbicidal effect rating, CYPIR” value (Cyperus iria; [22]) was 7.0, the “herbicidal effect rating, CYPIR” value (Cyperus iria; [23]) was 7.0 and the “herbicidal effect rating, CYPIR” value (Cyperus iria; [24]) was 7.0. The “herbicidal effect rating, CYPIR” value (Cyperus iria; [25]) was 8.0.
